Test results published in the METLIN SMRT retention time set (Domingo-Almenara et al. 2019).

Assay: gradient 5% acetonitrile 3 min, to 50% in 2 min, to 85% in 15 min, held 3 min, 100 µL/min
Conditions: column: Zorbax Extend-C18 2.1 x 50 mm; eluents: water / acetonitrile, 0.1% formic acid
How it was run: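 Pure standards were analyzed in mixtures of ~100 molecules using HPLC coupled to a quadrupole time-of-flight mass spectrometer, in both positive and negative ionization mode. Separation used a Zorbax Extend-C18 column (2.1 × 50 mm, 1.8 μm) at 100 μL/min, with water and acetonitrile each containing 0.1% formic acid. Dead and dwell volumes were 40 μL and 900 μL, and data were collected over 3 months. Retention time was read from computationally picked adduct peaks, each inspected manually.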

RP-LC retention time [s] | SMILES
964 | Cc1ccc(NC(=O)N2CCCC2c2nc(-c3ccccc3)no2)cc1 (centres undefined)
773 | CCOc1ccc(Nc2ncccc2S(N)(=O)=O)cc1
758 | COc1ccc2c(c1)C1CC(C)(NC(=O)C1C(=O)c1ccccc1)O2 (centres undefined)
591 | Cc1cc(C(=O)NCc2ccccn2)c2cc(Br)ccc2n1
822 | CCOc1ccc(NC(=O)Cn2nc3c(Oc4ccccc4)nccn3c2=O)cc1
913 | COc1ccc(C2(C(=O)N3CCC(Oc4ccc(-c5noc(C)n5)cc4)C3)CC2)cc1 (centres undefined)
1100 | CC(C)c1noc(-c2cc(=O)n(CC(=O)Nc3ccc(F)c(Cl)c3)c3ccccc23)n1
650 | O=C(NCCNC(=O)c1ccc2c(c1)OCO2)c1ccc(NC(=O)C2CC2)cc1
573 | COc1ccc(CC(=O)NCC(c2ccsc2)N2CCc3ccccc3C2)cc1OC (centres undefined)
728 | NC(=O)c1ccc(NC(=O)c2sc3ncccc3c2-n2cccc2)cc1
885 | COc1ccc(OC)c(-c2cn3ccn(-c4ccc(OC)c(Cl)c4)c(=O)c3n2)c1
951 | COc1ccc(C(=O)Nc2ccc3c(c2)Sc2ncccc2C(=O)N3C(C)C)c(OC)c1
692 | COc1cccc(NC(=O)N(C)CCc2noc(COc3ccccc3F)n2)c1
997 | COc1ccc(-c2ncc3c(n2)CCN(S(=O)(=O)c2cccs2)C3)cc1
997 | O=C(Nc1ccc2ncsc2c1)c1sc2ccccc2c1Cl
645 | CNC(=O)c1ccc(-c2nc3cc(NS(=O)(=O)c4ccc(F)cc4F)ccc3n2C)cc1
856 | Cc1cccc(OCC(=O)Nc2ccc3c(c2)Sc2ncccc2C(=O)N3C)c1
846 | Fc1ccc(OCc2nnc3sc(-c4ccccn4)nn23)cc1
618 | CCN(Cc1ccc(OC)cc1)Cc1cc(=O)n2cccc(C)c2n1
692 | COc1ccc(NC(=O)N(C)CCc2noc(COc3ccc(F)cc3)n2)cc1
669 | COc1ccc(-c2nc(N3CCOCC3)c3ccccc3n2)cc1
697 | CCOc1ccc(-c2nc3ncccn3c2NCc2ccccc2)cc1OC
817 | CCOc1ccc(NC(=O)COc2cc(C(=O)OC)nc3ccc(OC)cc23)cc1
823 | COc1cc(CNC(=O)c2cnc(-c3ccccc3)nc2-c2ccncc2)cc(OC)c1
932 | COc1ccc(-c2noc(C3CC(=O)N(c4ccc(C)c(C)c4)C3)n2)c(OC)c1 (centres undefined)
825 | CCNC(=O)C1CCN(c2nc3ccc(-c4ccc(OC)cc4)nc3s2)CC1
1250 | Cc1ccc(F)c(NC(=O)c2cc(C(C)C)n3nccc3n2)c1
1060 | Cc1ccc(NC(=O)Cn2nc(N3CCCC3)c3ccccc3c2=O)cc1Cl

Further lines, the compound ahead of its results:

SMILES | RP-LC retention time [s]
Cn1c(=O)n(C)c2cc(N3CCCC3)c(NC(=O)Cc3ccccc3)cc21 | 670
CCC(CN(C)Cc1ccccc1)NC(=O)CN(c1ccccc1)S(=O)(=O)N(C)C (centres undefined) | 686
Cc1ccc(CNC(=O)C(C)n2c3ccccc3c3cnn(C)c(=O)c32)o1 (centres undefined) | 882
N#CCn1cccc(S(=O)(=O)N2CCCCCC2)c1=O | 737
CN(C)CCCn1cc2c(c1-c1cccc(Br)c1)c(=O)n(C)c(=O)n2C | 617
O=C(N1CC(c2nc(-c3cccs3)no2)C1)C1(c2ccccc2)CCOCC1 | 814
COc1cc(OC)c(NS(=O)(=O)c2cc(-c3c(C)noc3NC(C)=O)ccc2OC)cc1Cl | 792
Cc1ccnc(NC(=O)NCCCSc2nnc(-c3ccccc3)o2)n1 | 727
Cn1ncc2c(Nc3cccc(Cl)c3)nc(N3CCN(C4CCCCC4)CC3)nc21 | 751
O=[N+]([O-])c1cn2c(n1)OC[C@@H](OCc1ccc(OC(F)(F)F)cc1)C2 | 916
CCc1cccc(NC(=O)C2CCN(S(=O)(=O)c3cc(-c4noc(C5CC5)n4)cs3)CC2)c1 | 1110
CC(C)CN1C(=O)c2ccccc2C(C(=O)N2CCN(c3ccccn3)CC2)C1c1cccs1 (centres undefined) | 674
CCCCCNC(=O)CN1c2ccc(F)cc2-c2ccccc2S1(=O)=O | 986
CC(CCc1ccccc1)NC(=O)C1CCCN(c2nccnc2Oc2ccccc2)C1 (centres undefined) | 1100
Nc1nc(-c2nn(Cc3ccccc3F)c3ncccc23)ncc1C1CC1 | 720
CCN1c2cc(C(=O)NC3CCCCC3)ccc2C(=O)N2CCCCC21 (centres undefined) | 853
O=C(c1ccccc1)c1ccc[nH]1 | 842
COCC1CN(Cc2cc3ccc(C)cc3[nH]c2=O)CCC1(F)F (centres undefined) | 629
Cc1cc(F)cc2c(=O)c3c([nH]c12)CCN(CC(=O)Nc1ccc(F)c(Cl)c1)C3 | 664
O=C(c1ccn[nH]1)N1CCC[C@H]1c1nc(C2CCOCC2)n[nH]1 | 558
CCn1c(=O)c2c(nc3n2CC(C)CN3c2ccc(Br)cc2)n(C)c1=O (centres undefined) | 954

SMILES | RP-LC retention time [s]
O=C(Cc1cccc(F)c1)N1CCC(n2cnnc2-c2ccccc2)C1 (centres undefined) | 686
O=C(Cc1csc(NC(=O)NC2CCCC2)n1)NCCc1c[nH]c2ccccc12 | 754
COc1cccc(CN2CCC(Oc3ccccc3-c3nc(-c4ccncc4)no3)C2)n1 (centres undefined) | 686
Cc1cc(C(=O)NCCc2ccc(Cl)cc2)c2c(=O)n(C)c(=O)n(C)c2n1 | 835
Cc1ccc(Cn2c(=O)c3nn(C)cc3n3c(=O)n(Cc4ccc(F)cc4)nc23)cc1 | 947
CC(=O)NCCc1csc(C2CCN(C(=O)C3(c4ccccc4)CC3)CC2)n1 | 651
Cc1nn(CCC(=O)NC2CCCCCC2)c(=O)c2nn(-c3ccccc3)c(C)c12 | 830
Cc1ccc(C)c(-c2nc(-c3cccc(-c4ccnn4C)c3)no2)c1 | 1110
Cc1ccc2c(c1)N(C(=O)Cn1ccn3nc(-c4ccccc4)c(CO)c3c1=O)CCO2 | 908
CCOCCCNC(=O)c1nnc(-c2ccc(S(=O)(=O)N3CCCC3)cc2)o1 | 786
COc1ccc(N2C=C(C(=O)N3CCOCC3)S(=O)(=O)c3ccc(F)cc32)cc1OC | 729
O=C(NCCc1ccccc1)C1CN(S(=O)(=O)c2cccnc2)CC12CCCCC2 (centres undefined) | 895
O=C(Nc1cccc(OCc2nnc(-c3ccc(F)cc3)o2)c1)c1ccsc1 | 920
CC(C)c1cc(C(=O)NC2CCCCCC2)nc2ccnn12 | 1170
O=C(NCc1cccs1)C1CCN(CCc2c[nH]c3ncccc23)CC1 | 563
Cc1cccnc1NC(=O)C1CCN(S(=O)(=O)c2cn(C(C)C)cn2)CC1 | 591
COC[C@@H]1CN(S(=O)(=O)c2cccc(C)c2)C[C@H]1c1ccccn1 | 651
CCc1ccc(C(=O)NC2CCN(c3cc(-c4cccs4)[nH]n3)C2)cc1 (centres undefined) | 730
COc1cn(CC(=O)NCc2ccco2)c(CO)cc1=O | 544
N#Cc1cccc(-c2cn3c(n2)N(C(=O)COc2ccccc2)CCC3)c1 | 961
Cc1oc2ncnc(N3CCCC(C(=O)NCc4cccnc4)C3)c2c1C (centres undefined) | 593

SMILES | RP-LC retention time [s]
O=C(CNS(=O)(=O)Cc1ccccc1)N1CCOC(c2ccccc2)C1 (centres undefined) | 784
O=C(Cn1cnc(-c2nc(-c3ccccc3)cs2)c1)Nc1ccc(F)cc1F | 744
COC(=O)c1ccc(C(=O)NCC2(O)CCOCC2)cc1 | 584
Cn1c(=O)c(=O)n(C)c2cc(N3CCCCC3)c(NC(=O)CN3CCOCC3)cc21 | 608
CCCNC(=O)CN1CCN(Cc2ccccc2)C1=O | 675
CSc1ccc(CNC(=O)c2cc(-c3ccncc3)cn2C)cc1 | 655
Cc1cccc(CN2CCn3c(nnc3[C@@H]3C[C@@H](O)CN3Cc3cccnc3)C2)c1 | 586
Cn1cc(CN2CCCC(COc3ccccc3C(=O)N3CCCC3)C2)c2ccccc21 (centres undefined) | 695
O=C(Cn1c(C(F)(F)F)nc2cc3c(cc21)OCCO3)NCc1ccccc1 | 829
CC1=C(c2ccccc2)S(=O)(=O)N=C1N1CCN(c2ccccn2)CC1 | 632
Cn1nnc2c(SCc3c(F)cccc3Cl)ncnc21 | 933
O=C(Cn1nc2n(c1=O)CCCC2)N1CCN(c2ccccc2)CC1 | 638
Cc1ccc(N2CCCS2(=O)=O)cc1NC(=O)C1CCCC1 | 696
CCCCN(C)S(=O)(=O)c1cc(-c2nnc(C)o2)co1 | 821
Cn1c(=O)c2c(C(=O)N3CCN(c4cccc(C(F)(F)F)c4)CC3)cc(=O)n(C)c2n(C)c1=O | 943
CCS(=O)(=O)c1ccc2c(c1)N(Cc1nc(-c3ccccc3Cl)no1)C(=O)CO2 | 895
O=C(NCCc1nc2cccnc2n1-c1ccccc1)C1CCCCC1 | 730
Cc1cccc(NC(=O)NCC(c2cccnc2)c2c[nH]c3ccccc23)c1C (centres undefined) | 661
Cc1cc(C)cc(N2CCC(NC(=O)Nc3cccc(F)c3C)C2=O)c1 (centres undefined) | 938
